Reference: PubChem BioAssay AID270 (DTP/NCI, 2004)
Records with an inconclusive call do not appear.

System: BDF1 mice, s.c. Lewis lung carcinoma, T/C %
Assay: NCI In Vivo Anticancer Drug Screen. Data for tumor model Lewis Lung Carcinoma (subcutaneous) in B6D2F1 (BDF1) mice
Procedure, shortened: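 Transplanted tumors grown in mice; compound vs vehicle dosing; endpoint survival or tumor size; ratio T/C.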

[1] = endpoint: mean tumor weight, dose: 25.0 mg/kg/injection, schedule: Q01DX011 (ip), vehicle: saline, higher = larger tumour
[2] = endpoint: mean tumor weight, dose: 50.0 mg/kg/injection, schedule: Q01DX011 (ip), vehicle: saline, higher = larger tumour
[3] = endpoint: mean tumor weight, dose: 100.0 mg/kg/injection, schedule: Q01DX011 (ip), vehicle: saline, higher = larger tumour
[4] = endpoint: median survival time, dose: 12.5 mg/kg/injection, schedule: Q01DX009 (ip), vehicle: saline with Tween-80, higher = longer survival
[5] = endpoint: median survival time, dose: 6.25 mg/kg/injection, schedule: Q01DX009 (ip), vehicle: saline with Tween-80, higher = longer survival

`O=C(/C=C/c1ccc(O)c(O)c1)c1ccc(O)c(O)c1O` was tested, and the T/C (endpoint: mean tumor weight, dose: 12.5 mg/kg/injection, schedule: Q01DX011 (ip), vehicle: saline, higher = larger tumour) was 57 % of control, the T/C [1] was 89 % of control and the T/C [2] was 64 % of control. For the same compound, the T/C [3] was 59 % of control.

In the case of `C[C@]12CCC(=O)C=C1CC[C@@H]1[C@@H]2C(=O)C[C@]2(C)C3=CC(=O)O[C@H]3C[C@@H]12`, the T/C (endpoint: median survival time, dose: 3.13 mg/kg/injection, schedule: Q01DX009 (ip), vehicle: saline, higher = longer survival) is reported as 106 % of control, the T/C (endpoint: median survival time, dose: 6.25 mg/kg/injection, schedule: Q01DX009 (ip), vehicle: saline, higher = longer survival) is reported as 109 % of control and the T/C [4] is reported as 116 % of control. The T/C (endpoint: median survival time, dose: 12.5 mg/kg/injection, schedule: Q01DX009 (ip), vehicle: saline, higher = longer survival) was 100 % of control and the T/C (endpoint: median survival time, dose: 25.0 mg/kg/injection, schedule: Q01DX009 (ip), vehicle: saline with Tween-80, higher = longer survival) was 91 % of control.

For `[Cl][Hg][c]1ccc2ccccc2c1`, the T/C (endpoint: median survival time, dose: 3.0 mg/kg/injection, schedule: Q01DX009 (ip), vehicle: gum acacia, higher = longer survival) was 89 % of control and the T/C (endpoint: median survival time, dose: 6.0 mg/kg/injection, schedule: Q01DX009 (ip), vehicle: gum acacia, higher = longer survival) was 108 % of control.

With `O=C1CCCC2C3CC(CN12)C1CCCCN1C3` (stereo not given) the T/C (endpoint: mean tumor weight, dose: 22.0 mg/kg/injection, schedule: Q01DX011 (ip), vehicle: carboxymethylcellulose (CMC), higher = larger tumour) was 113 % of control, the T/C (endpoint: mean tumor weight, dose: 33.0 mg/kg/injection, schedule: Q01DX011 (ip), vehicle: carboxymethylcellulose (CMC), higher = larger tumour) was 59 % of control and the T/C (endpoint: mean tumor weight, dose: 50.0 mg/kg/injection, schedule: Q01DX011 (ip), vehicle: carboxymethylcellulose (CMC), higher = larger tumour) was 78 % of control. The T/C (endpoint: mean tumor weight, dose: 75.0 mg/kg/injection, schedule: Q01DX011 (ip), vehicle: carboxymethylcellulose (CMC), higher = larger tumour) was 89 % of control.

With `CCCCOC(=O)Nc1ccc(OCC)cc1` the T/C (endpoint: mean tumor weight, dose: 35.0 mg/kg/injection, schedule: Q01DX011 (ip), vehicle: carboxymethylcellulose (CMC), higher = larger tumour) was 63 % of control, the T/C (endpoint: mean tumor weight, dose: 70.0 mg/kg/injection, schedule: Q01DX011 (ip), vehicle: carboxymethylcellulose (CMC), higher = larger tumour) was 85 % of control and the T/C (endpoint: mean tumor weight, dose: 140.0 mg/kg/injection, schedule: Q01DX011 (ip), vehicle: carboxymethylcellulose (CMC), higher = larger tumour) was 68 % of control. For the same compound, the T/C (endpoint: mean tumor weight, dose: 280.0 mg/kg/injection, schedule: Q01DX011 (ip), vehicle: carboxymethylcellulose (CMC), higher = larger tumour) was 69 % of control.

In the case of `CN(C)Cc1c[nH]c2ccccc12`, the T/C (endpoint: mean tumor weight, dose: 26.6 mg/kg/injection, schedule: Q01DX011 (ip), vehicle: carboxymethylcellulose (CMC), higher = larger tumour) is reported as 94 % of control, the T/C (endpoint: mean tumor weight, dose: 40.0 mg/kg/injection, schedule: Q01DX011 (ip), vehicle: carboxymethylcellulose (CMC), higher = larger tumour) is reported as 70 % of control and the T/C (endpoint: mean tumor weight, dose: 60.0 mg/kg/injection, schedule: Q01DX011 (ip), vehicle: carboxymethylcellulose (CMC), higher = larger tumour) is reported as 62 % of control. For the same compound, the T/C (endpoint: mean tumor weight, dose: 90.0 mg/kg/injection, schedule: Q01DX011 (ip), vehicle: carboxymethylcellulose (CMC), higher = larger tumour) was 57 % of control.

In the case of `c1cc2n(n1)CCN2`, the T/C (endpoint: mean tumor weight (est.), dose: 50.0 mg/kg/injection, schedule: Q01DX009 (ip), vehicle: saline, higher = larger tumour) is reported as 56 % of control, the T/C (endpoint: mean tumor weight (est.), dose: 100.0 mg/kg/injection, schedule: Q01DX009 (ip), vehicle: saline, higher = larger tumour) is reported as 37 % of control and the T/C (endpoint: mean tumor weight (est.), dose: 100.0 mg/kg/injection, schedule: Q04DX003 (ip), vehicle: saline, higher = larger tumour) is reported as 70 % of control. The T/C (endpoint: mean tumor weight (est.), dose: 200.0 mg/kg/injection, schedule: Q01DX009 (ip), vehicle: saline, higher = larger tumour) was 36 % of control, the T/C (endpoint: mean tumor weight (est.), dose: 200.0 mg/kg/injection, schedule: Q04DX003 (ip), vehicle: saline, higher = larger tumour) was 79 % of control and the T/C (endpoint: mean tumor weight (est.), dose: 400.0 mg/kg/injection, schedule: Q04DX003 (ip), vehicle: saline, higher = larger tumour) was 57 % of control. For the same compound, the T/C [1] was 97 % of control, the T/C [2] was 84 % of control and the T/C [3] was 82 % of control. The T/C (endpoint: mean tumor weight, dose: 200.0 mg/kg/injection, schedule: Q01DX011 (ip), vehicle: saline, higher = larger tumour) was 7 % of control, the T/C (endpoint: median survival time, dose: 50.0 mg/kg/injection, schedule: Q01DX009 (ip), vehicle: saline, higher = longer survival) was 122 % of control and the T/C (endpoint: median survival time, dose: 100.0 mg/kg/injection, schedule: Q01DX009 (ip), vehicle: saline, higher = longer survival) was 100 % of control. The T/C (endpoint: median survival time, dose: 100.0 mg/kg/injection, schedule: Q04DX003 (ip), vehicle: saline, higher = longer survival) was 102 % of control, the T/C (endpoint: median survival time, dose: 200.0 mg/kg/injection, schedule: Q01DX009 (ip), vehicle: saline, higher = longer survival) was 100 % of control and the T/C (endpoint: median survival time, dose: 400.0 mg/kg/injection, schedule: Q04DX003 (ip), vehicle: saline, higher = longer survival) was 88 % of control.

For `CCN(CC)Cc1cc(Nc2c3ccccc3nc3cc(Cl)ccc23)ccc1O`, the T/C (endpoint: mean tumor weight, dose: 40.0 mg/kg/injection, schedule: Q01DX011 (ip), vehicle: other, higher = larger tumour) was 48 % of control.

For `Nc1ncnc2c(C3OC(CO)C(O)C3O)[nH]nc12` (stereo not given), the T/C (endpoint: mean tumor weight, dose: 10.5 mg/kg/injection, schedule: Q01DX011 (ip), vehicle: carboxymethylcellulose (CMC), higher = larger tumour) was 66 % of control.

In the case of `Nc1nc(N)c2nc(CN(CCO)c3ccc(C(=O)NC(CCC(=O)O)C(=O)O)cc3)cnc2n1` (stereo not given), the T/C (endpoint: median survival time, dose: 0.25 mg/kg/injection, schedule: Q01DX009 (ip), vehicle: Klucel (hydroxypropylcellulose) (HPC), higher = longer survival) is reported as 96 % of control, the T/C (endpoint: median survival time, dose: 0.5 mg/kg/injection, schedule: Q01DX009 (ip), vehicle: Klucel (hydroxypropylcellulose) (HPC), higher = longer survival) is reported as 107 % of control and the T/C (endpoint: median survival time, dose: 1.0 mg/kg/injection, schedule: Q01DX009 (ip), vehicle: Klucel (hydroxypropylcellulose) (HPC), higher = longer survival) is reported as 108 % of control. The T/C (endpoint: median survival time, dose: 2.0 mg/kg/injection, schedule: Q01DX009 (ip), vehicle: Klucel (hydroxypropylcellulose) (HPC), higher = longer survival) was 89 % of control.

With `O=C(NC(Cc1ccccc1)C(=O)CCl)OCc1ccccc1` (stereo not given) the T/C (endpoint: median survival time, dose: 3.12 mg/kg/injection, schedule: Q01DX009 (ip), vehicle: saline with Tween-80, higher = longer survival) was 107 % of control, the T/C [5] was 87 % of control and the T/C [4] was 94 % of control.

With `CCOC(=O)C(CC(C)C)NC(=O)C(Cc1ccc(N(CCCl)CCCl)cc1)NC(C)=O` (stereo not given) the T/C (endpoint: median survival time, dose: 1.0 mg/kg/injection, schedule: Q01DX009 (ip), vehicle: saline with Tween-80, higher = longer survival) was 88 % of control, the T/C (endpoint: median survival time, dose: 2.0 mg/kg/injection, schedule: Q01DX009 (ip), vehicle: saline with Tween-80, higher = longer survival) was 95 % of control and the T/C (endpoint: median survival time, dose: 4.0 mg/kg/injection, schedule: Q01DX009 (ip), vehicle: saline with Tween-80, higher = longer survival) was 111 % of control. The T/C (endpoint: median survival time, dose: 8.0 mg/kg/injection, schedule: Q01DX009 (ip), vehicle: saline with Tween-80, higher = longer survival) was 108 % of control and the T/C (endpoint: median survival time, dose: 16.0 mg/kg/injection, schedule: Q01DX009 (ip), vehicle: saline with Tween-80, higher = longer survival) was 116 % of control.

`ClCCn1cnc2c(SCc3ccccc3Cl)ncnc21` was tested, and the T/C (endpoint: mean tumor weight, dose: 60.0 mg/kg/injection, schedule: Q01DX011 (ip), vehicle: other, higher = larger tumour) was 75 % of control, the T/C (endpoint: mean tumor weight, dose: 120.0 mg/kg/injection, schedule: Q01DX011 (ip), vehicle: other, higher = larger tumour) was 58 % of control and the T/C (endpoint: mean tumor weight, dose: 240.0 mg/kg/injection, schedule: Q01DX011 (ip), vehicle: other, higher = larger tumour) was 64 % of control.

For `CC/C(C)=C1\OC(=O)C(C)C(O)C(Cc2cccnc2)NC(=O)C(NC(=O)c2ncccc2O)C(C)OC1=O` (stereo not given), the T/C [5] was 92 % of control and the T/C [4] was 98 % of control.

`COc1ccc([C@@H]2c3cc4c(cc3C[C@H]3COC(=O)[C@@H]32)OCO4)cc1OC` was tested, and the T/C (endpoint: median survival time, dose: 11.0 mg/kg/injection, schedule: Q01DX009 (ip), vehicle: saline with Tween-80, higher = longer survival) was 98 % of control, the T/C (endpoint: median survival time, dose: 22.0 mg/kg/injection, schedule: Q01DX009 (ip), vehicle: saline with Tween-80, higher = longer survival) was 100 % of control and the T/C (endpoint: median survival time, dose: 33.0 mg/kg/injection, schedule: Q01DX009 (ip), vehicle: saline with Tween-80, higher = longer survival) was 97 % of control.

`O=C(O)c1c2c(nc3ccccc13)Cc1ccccc1-2` was tested, and the T/C (endpoint: median survival time, dose: 50.0 mg/kg/injection, schedule: Q01DX009 (ip), vehicle: Klucel (hydroxypropylcellulose) (HPC), higher = longer survival) was 99 % of control, the T/C (endpoint: median survival time, dose: 100.0 mg/kg/injection, schedule: Q01DX009 (ip), vehicle: Klucel (hydroxypropylcellulose) (HPC), higher = longer survival) was 109 % of control and the T/C (endpoint: median survival time, dose: 200.0 mg/kg/injection, schedule: Q01DX009 (ip), vehicle: Klucel (hydroxypropylcellulose) (HPC), higher = longer survival) was 109 % of control.

With `O=NN(CCCl)C(=O)Nc1ccc2[nH]c3ccccc3c2c1` the T/C (endpoint: median survival time, dose: 4.0 mg/kg/injection, schedule: Q01DX009 (ip), vehicle: Klucel (hydroxypropylcellulose) (HPC), higher = longer survival) was 119 % of control, the T/C (endpoint: median survival time, dose: 8.12 mg/kg/injection, schedule: Q01DX009 (ip), vehicle: Klucel (hydroxypropylcellulose) (HPC), higher = longer survival) was 110 % of control and the T/C (endpoint: median survival time, dose: 32.5 mg/kg/injection, schedule: Q01DX009 (ip), vehicle: Klucel (hydroxypropylcellulose) (HPC), higher = longer survival) was 97 % of control.

For `CS(=O)(=O)OCC(O)C(O)COS(C)(=O)=O` (stereo not given), the T/C (endpoint: mean tumor weight, dose: 125.0 mg/kg/injection, schedule: Q01DX011 (ip), vehicle: saline, higher = larger tumour) was 87 % of control, the T/C (endpoint: mean tumor weight, dose: 250.0 mg/kg/injection, schedule: Q01DX011 (ip), vehicle: saline, higher = larger tumour) was 77 % of control and the T/C (endpoint: mean tumor weight, dose: 500.0 mg/kg/injection, schedule: Q01DX011 (ip), vehicle: other, higher = larger tumour) was 75 % of control. For the same compound, the T/C (endpoint: mean tumor weight, dose: 500.0 mg/kg/injection, schedule: Q01DX011 (ip), vehicle: saline, higher = larger tumour) was 59 % of control, the T/C (endpoint: mean tumor weight, dose: 750.0 mg/kg/injection, schedule: Q01DX011 (ip), vehicle: other, higher = larger tumour) was 93 % of control and the T/C (endpoint: mean tumor weight, dose: 1000.0 mg/kg/injection, schedule: Q01DX011 (ip), vehicle: other, higher = larger tumour) was 55 % of control.

`CC(=O)O[C@@H]1[C@@H](O)[C@H]2O[C@@H]3C=C(C)CC[C@]3(CO)[C@]1(C)[C@@]21CO1` was tested, and the T/C (endpoint: median survival time, dose: 1.25 mg/kg/injection, schedule: Q01DX009 (ip), vehicle: saline with Tween-80, higher = longer survival) was 92 % of control, the T/C (endpoint: median survival time, dose: 2.5 mg/kg/injection, schedule: Q01DX009 (ip), vehicle: saline with Tween-80, higher = longer survival) was 100 % of control and the T/C (endpoint: median survival time, dose: 5.0 mg/kg/injection, schedule: Q01DX009 (ip), vehicle: saline with Tween-80, higher = longer survival) was 97 % of control.
